One series has as its target T1, Y2 receptor (Mus musculus, UniProt P97295).
T1 construct: from tissue; host or cells: live mice; oral mucosa / tongue epithelium
T1 sequence (P97295 1-381): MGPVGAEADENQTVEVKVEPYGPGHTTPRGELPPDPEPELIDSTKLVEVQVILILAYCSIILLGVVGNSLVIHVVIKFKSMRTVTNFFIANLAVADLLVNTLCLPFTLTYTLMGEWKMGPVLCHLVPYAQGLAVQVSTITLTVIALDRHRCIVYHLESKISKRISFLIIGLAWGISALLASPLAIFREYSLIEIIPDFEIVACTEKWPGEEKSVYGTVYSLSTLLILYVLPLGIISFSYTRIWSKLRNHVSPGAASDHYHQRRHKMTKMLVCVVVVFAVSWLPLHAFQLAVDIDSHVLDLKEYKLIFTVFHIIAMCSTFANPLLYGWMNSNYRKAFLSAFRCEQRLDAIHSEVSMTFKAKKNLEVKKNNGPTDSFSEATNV
Briefly: Y2R antagonist study: oral spray of BIIE0246/PYY3-36 mixture, 2 hr FI after 24 hr fast. The format is in vivo. The method, then: Direct proof of PYY3-36/Y2R interaction was obtained by utilizing a selective Y2 receptor antagonist BIIE0246 [26]. The antagonist and PYY3-36 agonist (12 mg/100 g BW) were mixed at the 50∶1 molar ratio, respectively, and the mixture was used to treat fasted mice as described above (Fig. 6H).
(§1) One ml total volume sterile vials were obtained from Sephora. Murine PYY3-36 (Bachem) was diluted in sterile H2O. All 8–10 weeks old mice were individually housed. Mice were conditioned to the oral spray with vehicle after 24 hours fast on three separate occasions. Groups were randomized by FI and BW. […] The applied dose was estimated using calculated average volume ([…]) delivered per puff. Food was provided 10 min after the spray was applied and the amount consumed was measured at either 1 hr after the treatment, or at several time points (1, 2, 4, 6, 12, 18, and 24 hours). Taking into account the nocturnal feeding pattern, the experiment was conducted during the night with the first measurement taken at 2000 hrs. Each experiment was done at least 3 times in a crossover manner with 8 mice per group. For the Y2R antagonist study, BIIE0246 compound (Tocris Bioscience, Ellisville, MO) was dissolved in 100% EtOH (0.2 mM) and the stock solution was mixed with PYY3-36 aqueous solution at the 50∶1 molar ratio (BIIE0246/PYY3-36) with the final concentration of 2% EtOH in the mixture. […]

Another series deals with C57Bl/6J mice. Briefly: Oral spray acute augmentation: food intake after 24 hours fasting. The class given is in vivo, mouse. The method, then: Figure 6 Oral PYY3-36 augmentation therapy. […] (B) Dose-response effect of PYY3-36 on 2 hr FI vs. control (n = 8 each group). (C) Effect of PYY3-36 oral spray on FI in C57Bl/6J mice measured at 1, 2, 6, 12, 18, and 24 hr post treatment (n = 8/group). (D) Effect of PYY3-36 oral spray on FI in PYY^-/- mice measured at 1, 2, 6, 12, 18, and 24 hr post treatment (n = 8/group). (E) Average 24-hr FI in DIO mice treated with daily PYY3-36 OS (18 mg/100 g). (F) Effect of daily PYY3-36 OS (18 mg/100 g) treatment on BW change in DIO C57Bl/6J mice (n = 9 per each group). (G) Concentration of PYY3-36 in plasma of PYY KO mice 10 min after PYY3-36 (18 mg/100 g BW), or control oral spray vs. PYY3-36 injected i.p. (6 mg/100 g BW) (n = 10 per group).
One ml total volume sterile vials were obtained from Sephora. Murine PYY3-36 (Bachem) was diluted in sterile H2O. All 8–10 weeks old mice were individually housed. Mice were conditioned to the oral spray with vehicle after 24 hours fast on three separate occasions. Groups were randomized by FI and BW. […] The applied dose was estimated using calculated average volume ([…]) delivered per puff. Food was provided 10 min after the spray was applied and the amount consumed was measured at either 1 hr after the treatment, or at several time points (1, 2, 4, 6, 12, 18, and 24 hours). Taking into account the nocturnal feeding pattern, the experiment was conducted during the night with the first measurement taken at 2000 hrs. Each experiment was done at least 3 times in a crossover manner with 8 mice per group. For the Y2R antagonist study, BIIE0246 compound (Tocris Bioscience, Ellisville, MO) was dissolved in 100% EtOH (0.2 mM) and the stock solution was mixed with PYY3-36 aqueous solution at the 50∶1 molar ratio (BIIE0246/PYY3-36) with the final concentration of 2% EtOH in the mixture. Prior to this experiment, mice were conditioned to 2% EtOH spray on three separate occasions. Wherever practical, the behavioral experiments were conducted in a blind fashion with the personnel uninformed about the treatment regimen.

For another series, the system named is PYY KO mice. As to the kind of experiment: Oral spray satiation study, FI over 24 hours after single treatment, PYY KO mice. The class given is in vivo, mouse. The settings on record: n = 8/group. The method, then:
To investigate the duration of action of orally applied PYY3-36 we conducted standard satiation studies in C57Bl/6J as well as in PYY KO mice measuring FI over 24 hours after single treatment.
as §1, with “mixture. Prior to this experiment, mice were conditioned to 2% EtOH spray on three separate occasions.” for “mixture.”

The next series deals with DIO C57Bl/6J mice. As to the kind of experiment: Repeated once-a-day oral spray in DIO mice fed high fat diet ad libitum (FI and BW). The class given is in vivo, mouse. The settings on record: daily oral spray 18 mg/100 g, n = 9 per group. The method, then:
Figure 6 Oral PYY3-36 augmentation therapy. […] Experiments for each peptide were conducted separately and the results were integrated in one graph as fractions of average amount of FI consumed by the control group. […] (B) Dose-response effect of PYY3-36 on 2 hr FI vs. control (n = 8 each group). (C) Effect of PYY3-36 oral spray on FI in C57Bl/6J mice measured at 1, 2, 6, 12, 18, and 24 hr post treatment (n = 8/group). (D) Effect of PYY3-36 oral spray on FI in PYY^-/- mice measured at 1, 2, 6, 12, 18, and 24 hr post treatment (n = 8/group). (E) Average 24-hr FI in DIO mice treated with daily PYY3-36 OS (18 mg/100 g). (F) Effect of daily PYY3-36 OS (18 mg/100 g) treatment on BW change in DIO C57Bl/6J mice (n = 9 per each group). (G) Concentration of PYY3-36 in plasma of PYY KO mice 10 min after PYY3-36 (18 mg/100 g BW), or control oral spray vs. PYY3-36 injected i.p. (6 mg/100 g BW) (n = 10 per group). (H) Effect of Y2R specific antagonist BIIE0246 on anorexigenic action of PYY3-36 (n = 8 per each group) measured as 2 hr FI after 24 hr fast.*P<0.05, **P<0.01.
Because of the sustained 24-hr effect, we tested whether repeated once-a-day treatment would also affect the FI and BW accumulation over extended period of time when animals were fed high fat (HF) diet ad libitum.

Series [1] can be described thus: Concentration of PYY3-36 in plasma after oral spray or i.p. injection (RIA). The class given is in vivo, mouse. The settings on record: PYY KO mice, n = 10 per group. The method, then:
To exclude potential interference with circulating background PYY in the plasma, we used PYY KO mice.
Blood was collected from facial vein puncture into EDTA-coated tubes (Capiject) containing protease inhibitors as described for saliva collection. Plasma samples were frozen at −80°C until analyzed.
PYY3-36 from saliva and plasma was measured by PYY3-36 RIA kit (Phoenix Pharmaceuticals). The identification of PYY3-36 from human saliva was performed by reverse-phase high performance liquid chromatography (RP-HPLC) followed by Matrix-Assisted Laser Desorption Ionization – Time of Flight (MALDI-TOF) mass spectrometry (MS). PYY3-36 synthetic peptide (Bachem) was used for calibration of all purification steps. Briefly, saliva was pre-purified using a Sep-Pak C18 cartridge (Waters) followed by purification on RP-HPLC uBondapak C18 column (Waters) as described. The PYY3-36-containing fraction was collected, air dried and reconstituted in 0.1% formic acid in 50% acetonitrile/water prior to analysis with MALDI-TOF as described, [40].

Series [2] is described as follows: PYY3-36 in saliva after i.p. injection (RIA). The format is in vivo, mouse. The conditions noted are these: male C57Bl/6J mice, 10 min post injection, n = 10 per group. The method, then:
Some proteins enter saliva from salivary glands where they are expressed and secreted in an exocrine fashion via zymogen granules. Other peptides can enter saliva as a transudate from serum. To establish the source of salivary PYY3-36 we asked whether peptide circulating in a bloodstream can be transported into saliva. To this end, mice were injected intraperitoneally (i.p.) with increasing doses of murine synthetic PYY3-36 (Fig. 1F).
Salivation was stimulated as described earlier. Whole saliva was collected for 5 min from the oral cavity into Eppendorf tubes containing 5000 U Kallikrein inhibitor (Biomedicals) and 50 mM DPP-IV inhibitor (Linco Research). Saliva samples were frozen at −80°C until analyzed.
PYY3-36 from saliva and plasma was measured by PYY3-36 RIA kit (Phoenix Pharmaceuticals). The identification of PYY3-36 from human saliva was performed by reverse-phase high performance liquid chromatography (RP-HPLC) followed by Matrix-Assisted Laser Desorption Ionization – Time of Flight (MALDI-TOF) mass spectrometry (MS). PYY3-36 synthetic peptide (Bachem) was used for calibration of all purification steps. Briefly, saliva was pre-purified using a Sep-Pak C18 cartridge (Waters) followed by purification on RP-HPLC uBondapak C18 column (Waters) as described. […]

For another series, the system named is rodents. The conditions noted are these: i.p., ref [16]; cited from earlier work.

No end group written: not given here.

For `N=C(N)NCCC[C@H](NC(=O)CC1(CC(=O)N2CCN(C3c4ccccc4NC(=O)c4ccccc43)CC2)CCCC1)C(=O)NCCn1c(=O)n(-c2ccccc2)n(-c2ccccc2)c1=O` (stereo partly shown) [BIIE0246], the “effect of antagonist alone on 2 hr FI” value at Y2 receptor (BIIE0246 alone, data not shown) is “no effect on 2 hr FI”. Besides, the “effect of antagonist on the anorexigenic action of PYY3-36, 2 hr FI” value at Y2 receptor (BIIE0246 mixed with PYY3-36 (12 mg/100 g BW) at 50:1 molar ratio, 2% EtOH, after 24 hr fast, n = 8 per group) is recorded as “completely ablated the anorexigenic effect of PYY3-36”.
For the compound Peptide YY3-36 [PYY3-36], the “duration of anorexigenic response, FI over 24 hours after single treatment” value in the series on C57Bl/6J mice (C57Bl/6J mice, oral spray, high dose 12 mg/100 g BW, n = 8/group) was “significant until the next treatment 24 hrs later”; in the series with PYY KO mice (PYY-/- mice, high dose 12 mg/100 g BW), “significant until the next treatment 24 hrs later”. Also, the “response of FI over 24 hours to the low dose” value in the series with C57Bl/6J mice (C57Bl/6J mice, oral spray, low dose 3 mg/100 g BW, n = 8/group) is “only PYY KO mice responded”; with PYY KO mice (PYY KO mice, low dose 3 mg/100 g BW), “responded to the treatment in significant manner observed after 18 and 24 hrs post experiment”. Also, in the series on C57Bl/6J mice (oral spray, dose-response, 12 mg/100 g, after 24 hr fast, n = 8 each group (legend Fig. 6B says 2 hr FI)), the “one hour FI as % of control values at the maximum applied dose” value was 81%. For the same compound, the “food consumed less than the control group, 1 hour FI” value with C57Bl/6J mice (oral spray, single puff, 3 mg/100 g BW, after 24 hours of fasting, food given 10 min after spray, average, n = 10 per group, C57Bl/6J mice) was found to be 12.3%. Further, in the series with DIO C57Bl/6J mice (DIO C57Bl/6J mice, HF diet ad libitum), the BW accumulation result is “retarded BW accumulation which became significantly on day 17th”. In addition, the “average 24-hr FI of HF food” value in the series on DIO C57Bl/6J mice (DIO mice) was “significantly less HF food”. For the same compound, the “PYY3-36 in plasma 10 min after i.p. injection” value in series [1] (i.p. 6 mg/100g BW) is listed as “significant increase in PYY3-36 found in plasma”. For the same compound, the “PYY3-36 in plasma 10 min after oral spray” value in series [1] (oral spray 18 mg/100 g BW) is “no detectable PYY3-36 in the plasma”. Further, the “PYY3-36 in saliva after i.p. injection of increasing doses” value in series [2] is “significant relationship between the injected dose and the concentration of the peptide detected in saliva”. The “FI after intraperitoneal injection” value in the series with rodents was “dose-dependent reduction in FI”.
Consider “amylin (KCNTATCATQRLANFLVRSSNNLGPVLPPTNVGSNTY; ends and bridges not checked; cysteine pairing not given here; UniProt P12968 38-74, looked up) [endocrine peptide tested by oral spray application]”, for which, in the series on C57Bl/6J mice (oral spray, similar approach, data not shown), the “effect of oral spray application on FI” value is on record as “no change of FI”.
Take “glucagon-like peptide-1 (HAEGTFTSDVSSYLEGQAAKEFIAWLVKGR; ends and bridges not checked; UniProt P55095 98-127, looked up) [GLP-1]”: in the series with C57Bl/6J mice (oral spray after 24 hours fasting, GLP-1 3 mg/100 g BW, Exendin-4 10 mg/100 g BW, n = 10 each group), the “effect of oral spray on 1 hour FI (satiation) vs control oral spray” value was “induced stronger satiation”.

The record behind these values is PMC3189958, “Salivary PYY: A Putative Bypass to Satiety” (PLoS ONE, 2011).
